The numbers were not newly measured in patent US20060078974A1, “Novel purified hydroxymethylglutaryl-CoA reductases and structures thereof” (Affinium Pharmaceuticals, Inc., priority 2004, published 2006), which cites them from elsewhere.

For the series, the target named is S. aureus HMGR. The conditions noted are these: inhibition of S. aureus HMGR; reported value.

The Ki is the equilibrium dissociation constant of an inhibitor or competing ligand from its target. For the compound `CC(C)n1c(/C=C/[C@@H](O)C[C@@H](O)CC(=O)O)c(-c2ccc(F)cc2)c2ccccc21` (racemic) [Fluvastatin], the Ki was around 320 µM.
